Test results published in US11547697B2, “Heterocyclic compounds and uses thereof” (MILLENNIUM PHARMACEUTICALS, INC., priority 2009, dated 2023).
Where two headings read alike, the source gives them in different places.

What was measured:
Type in all cases: biochemical
p110α/p85α = p110α/p85α (Homo sapiens (Human), UniProt P42336); test: PI 3-Kinase (human) HTRF assay, p110α/p85α; conditions: read-out: PI3K α IC50
p110β/p85α = p110β/p85α (Homo sapiens (Human), UniProt P42338); test: PI 3-Kinase (human) HTRF assay, p110β/p85α; conditions: read-out: PI3K β IC50
p110δ/p85α = p110δ/p85α (Homo sapiens (Human), UniProt O00329); test: PI 3-Kinase (human) HTRF assay, p110δ/p85α; conditions: read-out: PI3K δ IC50
p110γ = p110γ (Homo sapiens (Human), UniProt P48736); test: PI 3-Kinase (human) HTRF assay, p110γ; conditions: read-out: PI3K γ IC50
Sequence of p110γ (P48736 whole entry): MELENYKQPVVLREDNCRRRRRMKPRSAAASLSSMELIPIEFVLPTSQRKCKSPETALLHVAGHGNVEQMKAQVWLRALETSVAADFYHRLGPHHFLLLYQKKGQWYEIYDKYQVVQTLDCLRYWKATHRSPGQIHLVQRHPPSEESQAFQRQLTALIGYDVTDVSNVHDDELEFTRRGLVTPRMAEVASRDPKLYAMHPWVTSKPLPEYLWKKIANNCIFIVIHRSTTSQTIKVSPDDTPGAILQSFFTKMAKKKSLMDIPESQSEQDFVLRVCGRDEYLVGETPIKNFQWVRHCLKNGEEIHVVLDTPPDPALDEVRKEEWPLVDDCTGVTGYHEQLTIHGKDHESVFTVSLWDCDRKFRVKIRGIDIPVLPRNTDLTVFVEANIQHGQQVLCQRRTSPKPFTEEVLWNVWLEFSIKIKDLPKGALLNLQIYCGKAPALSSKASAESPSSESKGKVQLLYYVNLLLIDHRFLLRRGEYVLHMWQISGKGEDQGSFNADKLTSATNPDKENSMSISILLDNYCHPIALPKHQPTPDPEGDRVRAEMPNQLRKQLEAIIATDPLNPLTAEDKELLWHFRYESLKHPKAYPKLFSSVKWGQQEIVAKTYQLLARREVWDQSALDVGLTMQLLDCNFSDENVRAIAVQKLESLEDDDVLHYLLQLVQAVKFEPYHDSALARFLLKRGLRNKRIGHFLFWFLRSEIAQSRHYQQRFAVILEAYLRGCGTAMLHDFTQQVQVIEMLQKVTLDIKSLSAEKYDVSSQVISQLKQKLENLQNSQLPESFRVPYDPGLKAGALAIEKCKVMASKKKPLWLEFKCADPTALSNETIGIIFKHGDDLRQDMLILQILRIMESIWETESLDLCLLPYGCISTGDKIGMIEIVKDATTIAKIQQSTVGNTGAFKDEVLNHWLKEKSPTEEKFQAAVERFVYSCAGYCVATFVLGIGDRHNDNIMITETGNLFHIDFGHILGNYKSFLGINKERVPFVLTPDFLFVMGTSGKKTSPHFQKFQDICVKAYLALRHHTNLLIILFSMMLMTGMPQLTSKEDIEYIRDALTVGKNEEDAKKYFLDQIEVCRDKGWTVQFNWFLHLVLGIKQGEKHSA

Sequence of p110α/p85α (P42336 whole entry): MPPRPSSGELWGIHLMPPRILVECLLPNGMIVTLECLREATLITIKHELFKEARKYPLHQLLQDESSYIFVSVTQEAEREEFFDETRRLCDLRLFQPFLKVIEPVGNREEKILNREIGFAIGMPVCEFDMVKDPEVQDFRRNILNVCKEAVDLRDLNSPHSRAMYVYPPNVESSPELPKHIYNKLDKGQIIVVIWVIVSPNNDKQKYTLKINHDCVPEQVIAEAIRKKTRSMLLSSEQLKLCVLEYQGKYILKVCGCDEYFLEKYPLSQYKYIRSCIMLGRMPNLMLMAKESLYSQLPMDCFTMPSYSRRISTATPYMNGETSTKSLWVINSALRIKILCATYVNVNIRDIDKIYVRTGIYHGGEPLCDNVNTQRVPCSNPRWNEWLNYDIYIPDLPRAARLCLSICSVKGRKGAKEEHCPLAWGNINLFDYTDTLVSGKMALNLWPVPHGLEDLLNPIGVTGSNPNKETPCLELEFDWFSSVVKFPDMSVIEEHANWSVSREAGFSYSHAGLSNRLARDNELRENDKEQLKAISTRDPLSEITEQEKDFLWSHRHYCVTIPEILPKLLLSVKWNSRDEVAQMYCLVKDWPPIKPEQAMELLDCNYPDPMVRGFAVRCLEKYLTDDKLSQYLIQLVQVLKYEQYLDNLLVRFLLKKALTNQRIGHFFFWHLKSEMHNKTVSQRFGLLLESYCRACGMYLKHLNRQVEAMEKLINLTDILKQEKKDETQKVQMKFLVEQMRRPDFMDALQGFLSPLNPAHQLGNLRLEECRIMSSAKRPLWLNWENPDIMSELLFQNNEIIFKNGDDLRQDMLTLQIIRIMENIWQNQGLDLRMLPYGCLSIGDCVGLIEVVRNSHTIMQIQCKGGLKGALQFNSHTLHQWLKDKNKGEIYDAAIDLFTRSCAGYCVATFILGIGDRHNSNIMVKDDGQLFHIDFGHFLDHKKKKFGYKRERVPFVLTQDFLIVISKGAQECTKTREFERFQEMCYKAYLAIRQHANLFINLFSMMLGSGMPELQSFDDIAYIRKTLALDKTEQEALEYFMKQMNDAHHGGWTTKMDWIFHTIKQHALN
Sequence of p110α/p85α (P27986 whole entry partner): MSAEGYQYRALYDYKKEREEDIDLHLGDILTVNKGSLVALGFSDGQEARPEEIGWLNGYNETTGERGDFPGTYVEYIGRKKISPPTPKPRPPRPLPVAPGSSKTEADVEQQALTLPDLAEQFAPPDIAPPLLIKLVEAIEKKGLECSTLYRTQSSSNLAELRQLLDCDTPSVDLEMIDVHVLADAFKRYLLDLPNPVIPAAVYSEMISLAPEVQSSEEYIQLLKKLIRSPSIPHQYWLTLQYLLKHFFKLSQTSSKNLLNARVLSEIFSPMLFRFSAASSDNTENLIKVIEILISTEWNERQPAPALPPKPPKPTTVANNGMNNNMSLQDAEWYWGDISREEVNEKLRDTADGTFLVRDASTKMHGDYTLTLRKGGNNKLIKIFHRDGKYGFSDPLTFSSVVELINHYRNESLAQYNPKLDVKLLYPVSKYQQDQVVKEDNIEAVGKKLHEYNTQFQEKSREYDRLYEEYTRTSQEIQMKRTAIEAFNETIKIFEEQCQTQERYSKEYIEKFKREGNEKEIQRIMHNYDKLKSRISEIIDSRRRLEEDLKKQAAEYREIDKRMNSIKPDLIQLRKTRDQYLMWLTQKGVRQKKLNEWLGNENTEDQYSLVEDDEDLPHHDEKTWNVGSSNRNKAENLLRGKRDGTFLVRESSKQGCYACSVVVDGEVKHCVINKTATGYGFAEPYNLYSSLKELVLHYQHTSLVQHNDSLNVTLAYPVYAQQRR
Sequence of p110β/p85α (P42338 whole entry): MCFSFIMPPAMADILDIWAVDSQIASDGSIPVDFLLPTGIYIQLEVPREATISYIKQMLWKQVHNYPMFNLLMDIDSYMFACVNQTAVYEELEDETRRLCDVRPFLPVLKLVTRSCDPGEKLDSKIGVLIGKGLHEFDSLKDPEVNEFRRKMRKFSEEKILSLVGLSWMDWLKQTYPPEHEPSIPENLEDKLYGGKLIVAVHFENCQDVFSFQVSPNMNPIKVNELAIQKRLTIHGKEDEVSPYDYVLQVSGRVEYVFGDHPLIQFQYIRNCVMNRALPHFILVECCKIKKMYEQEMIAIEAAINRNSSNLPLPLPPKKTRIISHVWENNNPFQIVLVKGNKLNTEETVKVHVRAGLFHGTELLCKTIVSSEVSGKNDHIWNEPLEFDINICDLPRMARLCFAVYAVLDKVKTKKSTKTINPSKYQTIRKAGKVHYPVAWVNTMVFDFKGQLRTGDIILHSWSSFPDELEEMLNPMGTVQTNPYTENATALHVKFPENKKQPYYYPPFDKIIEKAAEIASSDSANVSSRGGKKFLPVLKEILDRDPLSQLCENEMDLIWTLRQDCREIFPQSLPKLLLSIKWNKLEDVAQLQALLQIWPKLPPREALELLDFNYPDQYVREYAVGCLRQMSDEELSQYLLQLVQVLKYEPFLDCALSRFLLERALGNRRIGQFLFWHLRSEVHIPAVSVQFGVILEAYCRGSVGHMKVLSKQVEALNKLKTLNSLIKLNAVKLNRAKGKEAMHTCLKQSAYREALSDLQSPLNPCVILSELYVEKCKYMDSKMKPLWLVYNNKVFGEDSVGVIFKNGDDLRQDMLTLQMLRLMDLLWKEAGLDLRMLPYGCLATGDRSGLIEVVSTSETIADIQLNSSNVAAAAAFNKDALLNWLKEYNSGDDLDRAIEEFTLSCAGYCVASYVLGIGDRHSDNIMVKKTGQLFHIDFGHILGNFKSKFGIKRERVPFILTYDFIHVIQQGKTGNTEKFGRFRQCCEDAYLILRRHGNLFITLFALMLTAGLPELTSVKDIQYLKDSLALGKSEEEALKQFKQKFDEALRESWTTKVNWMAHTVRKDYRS
Sequence of p110β/p85α (P27986 whole entry partner): as the sequence (P27986 whole entry partner) above
Sequence of p110δ/p85α (O00329 whole entry): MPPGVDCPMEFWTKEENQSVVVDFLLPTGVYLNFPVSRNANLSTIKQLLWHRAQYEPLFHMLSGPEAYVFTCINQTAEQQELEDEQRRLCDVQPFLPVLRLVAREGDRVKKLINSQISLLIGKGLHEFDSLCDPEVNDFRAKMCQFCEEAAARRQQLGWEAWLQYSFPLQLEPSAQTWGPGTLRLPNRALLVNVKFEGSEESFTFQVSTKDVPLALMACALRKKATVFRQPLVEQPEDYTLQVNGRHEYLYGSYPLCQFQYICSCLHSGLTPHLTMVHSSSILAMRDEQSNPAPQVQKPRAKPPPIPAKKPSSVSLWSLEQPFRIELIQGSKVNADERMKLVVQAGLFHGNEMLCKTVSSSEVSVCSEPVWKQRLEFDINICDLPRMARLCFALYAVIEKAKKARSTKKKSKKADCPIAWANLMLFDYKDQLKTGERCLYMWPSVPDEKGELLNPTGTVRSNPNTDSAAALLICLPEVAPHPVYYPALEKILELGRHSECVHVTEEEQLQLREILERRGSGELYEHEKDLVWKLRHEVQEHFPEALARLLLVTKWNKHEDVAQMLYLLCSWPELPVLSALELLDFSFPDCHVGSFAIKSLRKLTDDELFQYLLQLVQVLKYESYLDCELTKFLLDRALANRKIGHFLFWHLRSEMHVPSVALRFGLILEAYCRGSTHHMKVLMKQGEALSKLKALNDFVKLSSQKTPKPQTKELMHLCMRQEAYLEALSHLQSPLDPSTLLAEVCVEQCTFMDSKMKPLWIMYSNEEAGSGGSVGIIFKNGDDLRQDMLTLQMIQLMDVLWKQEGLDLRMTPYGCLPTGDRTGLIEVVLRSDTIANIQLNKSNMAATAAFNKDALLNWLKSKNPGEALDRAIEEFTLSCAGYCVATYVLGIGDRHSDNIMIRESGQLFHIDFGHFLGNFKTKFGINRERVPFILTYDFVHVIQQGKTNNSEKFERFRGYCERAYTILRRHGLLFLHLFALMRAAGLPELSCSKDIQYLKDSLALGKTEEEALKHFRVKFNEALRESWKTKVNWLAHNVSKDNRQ
Sequence of p110δ/p85α (P27986 whole entry partner): as the sequence (P27986 whole entry partner) above

| Structure (SMILES) | IC50 (p110α/p85α) | IC50 (p110β/p85α) | IC50 (p110δ/p85α) | IC50 (p110γ) | IC50 (p110α/p85α; in vitro) | IC50 (p110β/p85α; in vitro) | IC50 (p110δ/p85α; in vitro) | IC50 (p110γ; in vitro) |
| --- | --- | --- | --- | --- | --- | --- | --- | --- |
| Nc1nc2cc(-c3ccc4ncnc(NC5CCOCC5)c4c3)ccc2o1 [compound 24] | < 0.1 µM | < 1 µM | < 0.1 µM | < 0.1 µM | – | – | – | – |
| Nc1nc2cc(-c3ccc4ncc(-c5cccnc5)n4n3)ccc2o1 [compound 58] | < 0.1 µM | < 0.1 µM | < 0.1 µM | < 0.1 µM | – | – | – | – |
| Nc1nc2cc(-c3ccc4ncc(-c5cn[nH]c5)n4n3)ccc2o1 [compound 59] | < 0.1 µM | < 0.1 µM | < 1 µM | < 0.1 µM | – | – | – | – |
| Nc1nc2cc(-c3cn4c(-c5ccncc5)cnc4cn3)ccc2o1 [compound 68] | < 0.1 µM | < 10 µM | < 10 µM | < 1 µM | – | – | – | – |
| Nc1nc2cc(-c3cn4c(-c5cn[nH]c5)cnc4cn3)ccc2o1 [compound 69] | < 1 µM | < 10 µM | < 10 µM | < 1 µM | – | – | – | – |
| Nc1nc2cc(-c3ccc4nccc(-c5ccncc5)c4c3)ccc2s1 [compound 70] | < 0.1 µM | < 0.1 µM | < 0.1 µM | < 0.1 µM | – | – | – | – |
| Nc1nc2cc(-c3ccc4ncc(-c5ccncc5)nc4c3)ccc2o1 [compound 71] | < 0.1 µM | < 10 µM | < 1 µM | < 0.1 µM | – | – | – | – |
| Nc1nc2cc(-c3ccc4ncc(-c5cn[nH]c5)nc4c3)ccc2o1 [compound 78] | < 0.1 µM | < 1 µM | < 1 µM | < 0.1 µM | – | – | – | – |
| CS(=O)(=O)N1CCN(c2cnc3ccc(-c4ccc5oc(N)nc5c4)cc3n2)CC1 [compound 86] | < 0.1 µM | < 1 µM | < 1 µM | < 0.1 µM | – | – | – | – |
| CS(=O)(=O)N1CCC(Nc2ncnc3ccc(-c4ccc5oc(N)nc5c4)cc23)CC1 [compound 87] | < 0.1 µM | < 1 µM | < 0.1 µM | < 0.1 µM | – | – | – | – |
| Cn1cc(-c2cnc3ccc(-c4ccc5oc(N)nc5c4)cc3n2)cn1 [compound 94] | < 0.1 µM | < 1 µM | < 10 µM | < 0.1 µM | – | – | – | – |
| CC(C)(C#N)c1ccc(Nc2ncnc3ccc(-c4ccc5oc(N)nc5c4)cc23)cc1 [compound 102] | < 0.1 µM | < 1 µM | < 1 µM | < 0.1 µM | – | – | – | – |
| Nc1nc2cc(-c3ccc4ncc(N[C@H]5CC[C@H](O)CC5)nc4c3)ccc2o1 [compound 128] | < 0.1 µM | < 10 µM | < 0.1 µM | < 0.1 µM | – | – | – | – |
| CC1CN(c2cnc3ccc(-c4ccc5oc(N)nc5c4)cc3n2)CC(C)N1 (centres unmarked) [compound 131] | < 1 µM | < 1 µM | < 1 µM | < 1 µM | – | – | – | – |
| CC1CN(c2cnc3ccc(-c4ccc5oc(N)nc5c4)cc3n2)CCN1 (centres unmarked) [compound 149] | < 0.1 µM | < 0.1 µM | < 10 µM | < 1 µM | – | – | – | – |
| CN1CCC(N(C)c2cnc3ccc(-c4ccc5oc(N)nc5c4)cc3n2)CC1 [compound 151] | < 0.1 µM | < 10 µM | < 1 µM | < 10 µM | – | – | – | – |
| CN1CCC(N(C)c2ncnc3ccc(-c4ccc5oc(N)nc5c4)cc23)CC1 [compound 155] | < 0.1 µM | < 0.1 µM | < 1 µM | < 0.1 µM | – | – | – | – |
| CN(C)C1CCN(c2cnc3ccc(-c4ccc5oc(N)nc5c4)cc3n2)CC1 [compound 172] | < 0.1 µM | < 0.1 µM | < 0.1 µM | < 1 µM | – | – | – | – |
| C[C@H]1CN(c2cnc3ccc(-c4ccc5oc(N)nc5c4)cc3n2)CCN1 [compound 178] | < 0.1 µM | < 0.1 µM | < 1 µM | < 1 µM | – | – | – | – |

The remaining lines, values ahead:

| IC50 (p110α/p85α) | IC50 (p110β/p85α) | IC50 (p110δ/p85α) | IC50 (p110γ) | IC50 (p110α/p85α; in vitro) | IC50 (p110β/p85α; in vitro) | IC50 (p110δ/p85α; in vitro) | IC50 (p110γ; in vitro) | Structure (SMILES) |
| --- | --- | --- | --- | --- | --- | --- | --- | --- |
| < 1 µM | < 10 µM | < 10 µM | < 10 µM | – | – | – | – | CN1CCN(c2ccnc3ccc(-c4ccc5oc(N)nc5c4)cc23)CC1 [compound 21] |
| < 0.1 µM | < 1 µM | < 10 µM | < 0.1 µM | – | – | – | – | CN1CCN(c2ncnc3ccc(-c4ccc5oc(N)nc5c4)cc23)CC1 [compound 23] |
| < 0.1 µM | < 1 µM | < 0.1 µM | < 1 µM | – | – | – | – | CN1CCC(Nc2cnc3ccc(-c4ccc5oc(N)nc5c4)cc3n2)CC1 [compound 81] |
| < 0.1 µM | < 10 µM | < 0.1 µM | < 0.1 µM | – | – | – | – | CC(=O)N1CCC(Nc2cnc3ccc(-c4ccc5oc(N)nc5c4)cc3n2)CC1 [compound 82] |
| < 0.1 µM | < 10 µM | < 0.1 µM | < 0.1 µM | – | – | – | – | Nc1nc2cc(-c3ccc4ncc(C(=O)NC5CCOCC5)n4c3)ccc2o1 [compound 83] |
| < 0.1 µM | < 0.1 µM | < 0.1 µM | < 0.1 µM | – | – | – | – | CC(=O)N1CCN(c2cnc3ccc(-c4ccc5oc(N)nc5c4)cc3n2)CC1 [compound 85] |
| < 0.1 µM | < 10 µM | < 0.1 µM | < 0.1 µM | – | – | – | – | Nc1nc2cc(-c3ccc4ncnc(NC5CCN(C(=O)C6CC6)CC5)c4c3)ccc2o1 [compound 89] |
| < 0.1 µM | < 10 µM | < 0.1 µM | < 0.1 µM | – | – | – | – | CS(=O)(=O)N1CCC(Nc2cnc3ccc(-c4ccc5oc(N)nc5c4)cc3n2)CC1 [compound 95] |
| < 0.1 µM | < 1 µM | < 0.1 µM | < 1 µM | – | – | – | – | CN1CC(C(=O)N2CCC(Nc3ncnc4ccc(-c5ccc6oc(N)nc6c5)cc34)CC2)C1 [compound 138] |
| < 1 µM | < 10 µM | < 10 µM | < 10 µM | – | – | – | – | CC(=O)NC1CCN(C(=O)c2cnc3ccc(-c4ccc5oc(N)nc5c4)cn23)CC1 [compound 147] |
| < 1 µM | < 10 µM | < 10 µM | < 10 µM | – | – | – | – | Nc1nc2cc(-c3ccc4ncc(C(=O)N5CCN(CC6CC6)CC5)n4c3)ccc2o1 [compound 161] |
| < 1 µM | < 10 µM | < 10 µM | < 10 µM | – | – | – | – | Nc1nc2cc(-c3ccc4ncc(C(=O)N5CCC(N6CCOCC6)CC5)n4c3)ccc2o1 [compound 163] |
| < 0.1 µM | < 10 µM | < 10 µM | < 10 µM | – | – | – | – | CC(C)(C)N1CCN(C(=O)c2cnc3ccc(-c4ccc5oc(N)nc5c4)cn23)CC1 [compound 191] |
| < 0.1 µM | < 1 µM | < 1 µM | < 1 µM | – | – | – | – | NCC(=O)N1CCN(c2cnc3ccc(-c4ccc5oc(N)nc5c4)cc3n2)CC1 [compound 192] |
| < 0.1 µM | < 1 µM | < 10 µM | < 0.1 µM | – | – | – | – | COC(=O)N1CCN(c2cnc3ccc(-c4ccc5oc(N)nc5c4)cc3n2)CC1 [compound 193] |
| – | – | – | – | < 0.1 µM | < 10 µM | < 10 µM | < 0.1 µM | Nc1nc2cc(-c3ccc4ncc(C(=O)N5CCC5)n4c3)ccc2o1 [compound 197] |
| – | – | – | – | < 0.1 µM | < 10 µM | < 10 µM | < 1 µM | CS(=O)(=O)CCN1CCN(C(=O)c2cnc3ccc(-c4ccc5oc(N)nc5c4)cn23)CC1 [compound 198] |
| – | – | – | – | < 0.1 µM | < 10 µM | < 0.1 µM | < 0.1 µM | CS(=O)(=O)CCN1CCC(NC(=O)c2cnc3ccc(-c4ccc5oc(N)nc5c4)cn23)CC1 [compound 199] |
| – | – | – | – | < 0.1 µM | < 0.1 µM | < 1 µM | < 0.1 µM | CN1CCC(NC(=O)c2cnc3ccc(-c4ccc5oc(N)nc5c4)nn23)CC1 [compound 203] |
